# In patent publication US20080279924A1, “HLA class I A2 tumor associated antigen peptides and vaccine compositions” (priority 1999, published 2008):
# Columns and labels:
# PBMC from healthy donors = type: cell-based, human
# HLA-DR molecules = conditions: cited from earlier work
substance,measurement,setting,value
aKXVAAWTLKAAa-NH2 [PADRE],donors with primary T cell responses,PBMC from healthy donors,all three donors
QYIKANSKFIGITE [Epitope 553.01],"antigen concentration at which the 10,000 cpm proliferation level was reached",PBMC from healthy donors,"about 10,000 ng/ml"
same,donors with primary T cell responses,PBMC from healthy donors,2 out of 3
same,number of DR molecules bound of DR molecules tested,HLA-DR molecules,seven of 16
